# Patent US7456154B2 (priority 2001, dated 2008)
# Legend:
# healthy rats = assay: Electromyography: CMAP ratio in naive (healthy) rats; format: in vivo, rat; details: for CMAP ratio (5th vs. 1st amplitude): naive rats, 50 μg/Kg, average ± SEM
# Description: Electromyography: Rats were anesthetized by i.p. injection of […] pentobarbital, immobilized, and subjected to repetitive sciatic nerve stimulation, using a pair of concentric needle electrodes at 3 Hz. Baseline compound muscle action potential (CMAP) was recorded by a concentric needle electrode placed in the gastrocnemius muscle, following a train of repetitive nerve stimulations at supramaximal intensity. Decrease (percent) in the amplitude of the fifth vs. the first muscle action potential was determined in two sets of repetitive stimulations for each animal. A reduction of 10% or more was considered indicative of neuromuscular transmission dysfunction.
# Drug administration: Intravenous injections and blood sampling for anti-AChR antibodies testing were via the right jugular vein under anesthesia. For oral administration, a special needle for oral gavage feeding was used, which is curved with a ball end (Stoelting, Wood Dale Ill.). Mestinon® was administered in a dose of 1 mg/kg/day, and purchased from Hoffmann La-Roche. Basel, Switzerland.
# AChE-R mRNA [1] = assay: In situ hybridization of AChE-R mRNA in rat muscle; format: in vivo; details: healthy and EAMG rats
# Description: In situ hybridization: Tissues were fixed in 4% paraformaldehyde and cut into 7 μm paraffin embedded sections. Spinal cord sections were deparaffinized, rehydrated using serial ethanol dilutions and permeabilized with proteinase K (10 μg/ml at room temp.). Slides were exposed to 5′ biotinylated, fully 2′-oxymethylated AChE-R or AChE-S-specific 50-mer cRNA probes complementary to human ACHE pseudo-intron 4 or exon 6, respectively [Grisaru et al. (2001) id ibid.]. Hybridization was performed overnight at 52° C. in hybridization mixture containing 10 μg/ml probe, 50 μg/ml yeast tRNA, 50 μg/ml heparin and 50% formamide in 375 mM Na chloride, 37.5 mM Na citrate, pH 4.5. For monkey sections, the probe was constructed according to the human AChE-R sequence; for rat sections, according to the mouse sequence. Slides were washed to remove non-hybridized probe, blocked with 1% skim milk containing 0.01% Tween-20 and 2 mM levamisole, an alkaline phosphatase inhibitor used to suppress non-specific staining and incubate with streptavidin-alkaline phosphatase (Amersham Pharmacia). Fast Red™ substrate (Roche Diagnostics) was used for detection. DAPI staining (Sigma Chemical Co., St. Louis, Mo., USA) served to visualize nuclei. Microscope images were analyzed with Image Pro Plus 4.0 (Media Cybernetics) software. […]
# AChE-R = assay: Immunoblot densitometry of serum AChE-R in EAMG rats; format: in vivo, rat; details: 24 h after single i.v. injection of 250 μg/Kg
# Description: Serum analyses: Blood samples drawn from EAMG rats and MG patients were subjected to non-denaturing gel electrophoresis as described [Kaufer et al. (1998) id ibid], as well as to catalytic activity measurements of AChE [Shapira et al. (2000) id ibid]. Iso-OMPA (tetraisopropylpyrophosphoramide, […]), was used to block butyrylcholinesterase activity in the serum samples. For activity staining on polyacrylamide gels [Kaufer et al. (1998) id ibid] we used 5-10−6 M iso-OMPA.
# To evaluate the physiological outcome of this suppression, compound muscle action potentials (CMAPs) from the gastrocnemius muscle were recorded. […] The baseline decline, the percent difference in the heights of the fifth and the first evoked potentials, ranged from 10% to 36% (mean±SEM=13.0±2.5%, FIG. 9B, inset) as compared to 4.0±0.9% among healthy rats. The standard therapy for MG patients is administration of anti-cholinesterases, which elevate ACh levels to a threshold that enables receptor activation. Accordingly, neostigmine bromide (Prostigmine™, 75 μg/kg) was administered via i.p. This rapidly and effectively corrected the CMAP decline in EAMG rats, from 87.6% of the first evoked potential in untreated animals to […] of this level (i.e. 107.4%) of the first evoked potential). […]
# AChE-R mRNA [2] = assay: In situ hybridization of AChE-R mRNA in rat spinal cord neurons; format: in vivo; details: 500 μg/kg i.v. daily, 7 days
# Description: FIG. 17 Effect of rEN101 on AChE-R mRNA in rat spinal cord neurons. The presence of AChE-R mRNA-positive cells was determined in spinal cord section of rats that had been treated for 7 days with rEN101 (500 μg/kg. i.v., daily).
# In situ hybridization: Tissues were fixed in 4% paraformaldehyde and cut into 7 μm paraffin embedded sections. Spinal cord sections were deparaffinized, rehydrated using serial ethanol dilutions and permeabilized with proteinase K (10 μg/ml at room temp.). Slides were exposed to 5′ biotinylated, fully 2′-oxymethylated AChE-R or AChE-S-specific 50-mer cRNA probes complementary to human ACHE pseudo-intron 4 or exon 6, respectively [Grisaru et al. (2001) id ibid.]. Hybridization was performed overnight at 52° C. in hybridization mixture containing 10 μg/ml probe, 50 μg/ml yeast tRNA, 50 μg/ml heparin and 50% formamide in 375 mM Na chloride, 37.5 mM Na citrate, pH 4.5. For monkey sections, the probe was constructed according to the human AChE-R sequence; for rat sections, according to the mouse sequence. Slides were washed to remove non-hybridized probe, blocked with 1% skim milk containing 0.01% Tween-20 and 2 mM levamisole, an alkaline phosphatase inhibitor used to suppress non-specific staining and incubate with streptavidin-alkaline phosphatase (Amersham Pharmacia). […] Microscope images were analyzed with Image Pro Plus 4.0 (Media Cybernetics) software.
substance,measurement,setting,value
5′-CTGCGATATTTTCTTGTACC-3′ (chemistry not given here) [rEN101],Effect on CMAP in healthy animals,"healthy rats; i.v., doses 10-500 μg/Kg",did not affect CMAP
same,CMAP ratio (5th vs. 1st amplitude),"healthy rats; intravenous, 0 h",1.00 ± 0.0
same,CMAP ratio (5th vs. 1st amplitude),"healthy rats; intravenous, 5 h",1.00 ± 0.01
same,CMAP ratio (5th vs. 1st amplitude),"healthy rats; intravenous, 24 h",1.02 ± 0.01
same,CMAP ratio (5th vs. 1st amplitude),"healthy rats; oral, 0 h",1.01 ± 0.01
same,CMAP ratio (5th vs. 1st amplitude),"healthy rats; oral, 1 h",1.0 ± 0.02
same,CMAP ratio (5th vs. 1st amplitude),"healthy rats; oral, 5 h",1.03 ± 0.02
same,CMAP ratio (5th vs. 1st amplitude),"healthy rats; oral, 24 h",1.01 ± 0.00
same,AChE-R mRNA labeling in muscle,AChE-R mRNA [1],almost to the limit of detection
same,Serum AChE-R level,AChE-R,reducing its serum level
same,AChE-R mRNA in rat spinal cord neurons,AChE-R mRNA [2],does not suppress AChE-R mRNA
